Data reported in patent publication EP0429333B1, “Process for producing oxazopyrroloquinolines, novel oxazopyrroloquinolines, and use of oxazopyrroloquinolines” (priority 1989, dated 1991).

Key:
[1] = biological target: T1, aldose reductase of rabbit lens (Oryctolagus cuniculus, UniProt P15122); test: Inhibitory effect on aldose reductase of lens; type: biochemical; conditions: read-out: Degree of inhibition for aldose reductase (%); for inhibition at 1 µM: concentration 1x10^-6 M; for inhibition at 0.5 µM: concentration 5x10^-7 M
T1 construct: to obtain electrophoretically homogeneous aldose reductase; from tissue; host or cells: rabbit lens
Procedure: (§1) 0.05 ml of 3mM NADPH, 0.1 ml of DL-glyceraldehyde and 0.04 ml of distilled water were added to 0.8 ml of 0.1M phosphoric acid buffer (pH 6.2) and left to stand at 25°C for 3 minutes. Then, 0.01 ml of the aldose reductase solution was added thereto to start reaction and decreasing of absorbance of 340 nm was measured at 25°C with time. Amount of enzyme which consumes 1 µmole of NADPH for 1 minute was taken as 1 unit.
Enzyme activity was measured under the same conditions as in the above measurement of aldose reductase activity except that 0.04 ml of aqueous solution of inhibitory substance in various concentrations was added in place of 0.04 ml of distilled water and degree of inhibition was calculated from comparison of the enzyme activity with the enzyme activity obtained in the absence of inhibitor. (1) OPQ, (2) methyl OPQ, (3) 1-methylpropyl OPQ, (4) 2-methylpropyl OPQ, (5) 2-carbamoylethyl OPQ, (6) hydroxymethyl OPQ, (7) 2-methylthioethyl OPQ, (8) 2-carboxyethyl OPQ, (9) 4-hydroxybenzyl OPQ, (10) 1-methylethyl OPQ, and (11) benzyl OPQ were used as inhibition substances and (12) PQQ was used as control.
Lens of rabbit was homogenized with 10mM phosphoric acid buffer (pH 7.0) containing 2mM dithiothreitol in an amount of two times the volume of the lens and subjected to centrifugation. The supernatant liquid was purified by affinity chromatography, gel filtration and chromatofocusing to obtain electrophoretically homogeneous aldose reductase. Using (1) OPQ, (2) 1-methylpropyl OPQ, (3) 2-methylpropyl OPQ, (4) hydroxymethyl OPQ, and (5) 1-methylethyl OPQ as inhibition substances, degree of inhibition of these substances for aldose reductase of rabbit lens was examined in the same manner in Example 32.

[2] = biological target: aldose reductase of kidney (Canis lupus familiaris, UniProt A0A8I3P2L6); test: Inhibitory effect on aldose reductase of kidney; type: biochemical, dog; conditions: read-out: Degree of inhibition for aldose reductase (%); for inhibition at 1 µM: concentration 1x10^-6 M; for inhibition at 2 µM: concentration 2x10^-6 M; for inhibition at 5 µM: concentration 5x10^-6 M; for inhibition at 0.5 µM: concentration 5x10^-7 M; for inhibition at 10 µM: concentration 1x10^-5 M; for inhibition at 0.2 µM: concentration 2x10^-7 M
Procedure: as §1, with “Medulla of kidney of dog was homogenized with 10mM phosphoric acid buffer (pH 7.0) containing 2mM dithiothreitol in an amount of four times the volume of kidney medulla and subjected to centrifugation. The supernatant liquid was purified by affinity chromatography, gel filtration and chromatofocusing to obtain electrophoretically homogeneous aldose reductase. 0.05” for “0.05”

[3] = Solubility of the isolated compound, described in words; type: physicochemical; conditions: for solubility in water / solubility under neutral and alkaline conditions: water
kidney = test: Toxicity to kidney determined by blood examination; type: in vivo, mice; conditions: conclusion from the blood examinations (a) and (b)
Procedure: After one day from administration, the mice were fasted (only water was given) and after lapse of 18 hours, blood was collected and serum was obtained therefrom. Glucose, urea nitrogen and creatinine in the serum were examined using FUJI Dry Chemslide (manufactured by Fuji Photo Film Co., Ltd.). […]
Thereafter, the mice were fasted (with giving only water) and after lapse of 18 hours, blood was collected and serum was obtained therefrom. Contents of glucose, urea nitrogen and creatinine in serum were obtained using FUJI Dry Chemslide. The results were shown by average value for eight mice.

inhibition at 1 µM [1] [%] | inhibition at 2 µM ([1]; concentration 2x10^-6 M) [%] | inhibition at 5 µM ([1]; concentration 5x10^-6 M) [%] | inhibition at 0.5 µM [1] [%] | inhibition at 1 µM [2] [%] | inhibition at 2 µM [2] [%] | inhibition at 5 µM [2] [%] | solubility in acetone and diethyl ether [3] | solubility in lower alcohols [3] | solubility in water [3] | solubility under neutral and alkaline conditions [3] | inhibition at 0.5 µM [2] [%] | inhibition at 10 µM [2] [%] | inhibition at 0.1 µM ([1]; concentration 1x10^-7 M) [%] | inhibition at 0.2 µM ([1]; concentration 2x10^-7 M) [%] | inhibition at 0.2 µM [2] [%] | inhibition at 0.1 µM ([2]; concentration 1x10^-7 M) [%] | Structure (SMILES) | toxicity to kidney (kidney)
43.3 | 51.9 | 68.4 | 33 | 30.5 | 48.1 | 68.2 | did not dissolve | dissolved | easily soluble | very easily soluble | – | – | – | – | – | – | CC(C)c1nc2c3nc(C(=O)O)cc(C(=O)O)c3c3[nH]c(C(=O)O)cc3c2o1 [1-Methylethyl OPQ, 5-(1-Methylethyl)-2,8,10-tricarboxy-1H-oxazo[5,4-h]-pyrrolo[2,3-f]quinoline] | –
69.8 | – | – | 57.2 | 63.1 | – | – | did not dissolve | dissolved | easily soluble | very easily soluble | 44.1 | – | 27 | 34.9 | 30.2 | – | CC(C)Cc1nc2c3nc(C(=O)O)cc(C(=O)O)c3c3[nH]c(C(=O)O)cc3c2o1 [2-Methylpropyl OPQ, 5-(2-Methylpropyl)-2,8,10-tricarboxy-1H-oxazo[5,4-h]-pyrrolo[2,3-f]quinoline] | –
– | – | – | – | 92.1 | – | – | did not dissolve | dissolved | easily soluble | very easily soluble | 73.6 | – | – | – | 31.4 | 25 | Cc1nc2c3nc(C(=O)O)cc(C(=O)O)c3c3[nH]c(C(=O)O)cc3c2o1 [Methyl OPQ, 5-Methyl-2,8,10-tricarboxy-1H-oxazo[5,4-h]-pyrrolo-[2,3-f]quinoline] | –

Second part, the compound before the results:

Structure (SMILES) | inhibition at 1 µM [1] [%] | inhibition at 2 µM ([1]; concentration 2x10^-6 M) [%] | inhibition at 5 µM ([1]; concentration 5x10^-6 M) [%] | inhibition at 0.5 µM [1] [%] | inhibition at 1 µM [2] [%] | inhibition at 2 µM [2] [%] | inhibition at 5 µM [2] [%] | solubility in acetone and diethyl ether [3] | solubility in lower alcohols [3] | solubility in water [3] | solubility under neutral and alkaline conditions [3] | inhibition at 0.5 µM [2] [%] | inhibition at 10 µM [2] [%] | inhibition at 0.1 µM ([1]; concentration 1x10^-7 M) [%] | inhibition at 0.2 µM ([1]; concentration 2x10^-7 M) [%] | inhibition at 0.2 µM [2] [%] | inhibition at 0.1 µM ([2]; concentration 1x10^-7 M) [%] | toxicity to kidney (kidney)
NC(=O)CCc1nc2c3nc(C(=O)O)cc(C(=O)O)c3c3[nH]c(C(=O)O)cc3c2o1 [2-Carbamoylethyl OPQ, 5-(2-Carbamoylethyl)-2,8,10-tricarboxy-1H-oxazo[5,4-h]-pyrrolo[2,3-f]quinoline] | – | – | – | – | 59.6 | 75.7 | 89.1 | did not dissolve | dissolved | easily soluble | very easily soluble | 44.7 | – | – | – | – | – | –
O=C(O)CCc1nc2c3nc(C(=O)O)cc(C(=O)O)c3c3[nH]c(C(=O)O)cc3c2o1 [2-Carboxyethyl OPQ, 5-(2-Carboxyethyl)-2,8,10-tricarboxy-1H-oxazo[5,4-h]-pyrrolo[2,3-f]quinoline] | – | – | – | – | 48 | 49.9 | 55 | did not dissolve | dissolved | easily soluble | very easily soluble | 22.5 | 58.5 | – | – | – | – | –
O=C(O)c1cc(C(=O)O)c2c(n1)c1nc(Cc3ccc(O)cc3)oc1c1cc(C(=O)O)[nH]c12 [4-Hydroxybenzyl OPQ, 5-(4-Hydroxybenzyl)-2,8,10-tricarboxy-1H-oxazo[5,4-h]-pyrrolo[2,3-f]quinoline] | – | – | – | – | 38.6 | 49.4 | 71.3 | did not dissolve | dissolved | easily soluble | especially soluble | – | 89 | – | – | – | – | –
O=C(O)c1cc(C(=O)O)c2c(n1)C(=O)C(=O)c1cc(C(=O)O)[nH]c1-2 [PQQ, pyrroloquinolinequinone, reference compound] | – | – | – | – | – | 17.3 | 42.8 | – | – | – | – | – | 64.4 | – | – | – | – | showed toxicity to kidney
